{"source": "patent US20210040153A1", "about": "“OLIGOPEPTIDE HAVING DENGUE VIRUS REPLICATION INHIBITION FUNCTION AND APPLICATION THEREOF” (priority 2018, published 2021)", "key": {"NS5": {"molecular_target": "T1, NS5 (Dengue virus type 2, UniProt P14340)", "T1 construct": "His6 (C); made in house; host or cells: E. coli BL21 (DE3), pET 30a/NS5", "experiment": "affinity to full-length DENV NS5 recombinant protein (phage display peptide library screening)", "assay_type": "binding, DENV-2", "procedure": "1) The protein solution is diluted with 0.1 M NaHCO3 to 100 μg/mL. Each time, 0.7 mL of the protein solution is added dropwise to a (φ35 mm polyethylene culture dish, which is gently shaken to soak the dish, which is then coated overnight at 4° C., The coating solution is aspirated and discarded; 2 mL of a blocking solution is added, and left at 4° C. for 2 h; the blocking solution is discarded, and the plate is tap-dried; the plate is washed 6 times with TBST (TBS+0,1%[V/V]Tween−20), and tap-dried each time. […]\n3) The eluted phage is added to 10 mL of the host bacterial Tet-LB culture solution (OD600 to 0.5) and then amplified; after 5 hours of culture, the culture solution is collected to purify the phage, and used for the next round of screening after the titer is measured. […]"}, "dengue virus": {"test_system": "dengue virus", "experiment": "inhibition of dengue virus replication (serotype not given)", "assay_type": "cell-based", "conditions": "serotype not stated"}, "DENV 2": {"test_system": "DENV 2", "experiment": "cell poisoning experiments: inhibition of DENV 2 replication", "assay_type": "cell-based, dengue virus"}, "dengue virus type 1": {"test_system": "dengue virus type 1", "experiment": "inhibition of replication of dengue virus type 1", "assay_type": "cell-based"}, "dengue virus type 3": {"test_system": "dengue virus type 3", "experiment": "inhibition of replication of dengue virus type 3", "assay_type": "cell-based"}, "dengue virus type 4": {"test_system": "dengue virus type 4", "experiment": "inhibition of replication of dengue virus type 4", "assay_type": "cell-based"}}}
{"substance": "KHGHHRH [Lys-His-Gly-His-His-Arg-His]", "values": [{"measurement": "affinity for NS5", "setting": "NS5", "value": "high specific affinity"}, {"measurement": "inhibitory effect on dengue virus replication", "setting": "dengue virus", "value": "highly effective inhibitory effect"}, {"measurement": "inhibitory effect on dengue virus replication", "setting": "dengue virus; listed as oligopeptide", "value": "effectively inhibit"}, {"measurement": "inhibitory effect on the replication of DENV 2 virus", "setting": "DENV 2", "value": "significant inhibitory effect"}, {"measurement": "inhibitory effect on the replication of dengue virus type 1", "setting": "dengue virus type 1", "value": "significant inhibitory effect"}, {"measurement": "inhibitory effect on the replication of dengue virus type 3", "setting": "dengue virus type 3", "value": "significant inhibitory effect"}, {"measurement": "inhibitory effect on the replication of dengue virus type 4", "setting": "dengue virus type 4", "value": "significant inhibitory effect"}]}
